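Growth conditions: 96-well plates. Treatment: test compound, 48 hours, 5 concentrations. Analysis: linear interpolation between bracketing concentrations; unreached endpoints set to highest concentration. TGI: total growth inhibition.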
Legend:
Test in all cases: growth of human tumour cells (NCI), 48 h
PC-3 prostate = test system: PC-3 prostate
HOP-92 NSCLC = test system: HOP-92 NSCLC
MDA-MB-231 breast = test system: MDA-MB-231 breast
T-47D breast = test system: T-47D breast
MDA-MB-435 = test system: MDA-MB-435
ACHN renal = test system: ACHN renal
UACC-62 melanoma = test system: UACC-62 melanoma
SF-268 CNS = test system: SF-268 CNS
HCT-15 colon = test system: HCT-15 colon
786-0 renal = test system: 786-0 renal
SNB-75 CNS = test system: SNB-75 CNS
HCC-2998 colon = test system: HCC-2998 colon
U251 CNS = test system: U251 CNS
NCI-H226 lung = test system: NCI-H226 lung
A498 renal = test system: A498 renal
UACC-257 melanoma = test system: UACC-257 melanoma
HCT-116 colon = test system: HCT-116 colon
MOLT-4 leukemia = test system: MOLT-4 leukemia
MDA-N = test system: MDA-N

| SMILES | TGI (PC-3 prostate) [µM] | TGI (HOP-92 NSCLC) [µM] | TGI (MDA-MB-231 breast) [µM] | TGI (T-47D breast) [µM] | TGI (MDA-MB-435) [µM] | TGI (ACHN renal) [µM] | TGI (UACC-62 melanoma) [µM] | TGI (SF-268 CNS) [µM] | TGI (HCT-15 colon) [µM] | TGI (786-0 renal) [µM] | TGI (SNB-75 CNS) [µM] | TGI (HCC-2998 colon) [µM] | TGI (U251 CNS) [µM] | TGI (NCI-H226 lung) [µM] | TGI (A498 renal) [µM] | TGI (UACC-257 melanoma) [µM] | TGI (HCT-116 colon) [µM] | TGI (MOLT-4 leukemia) [µM] | TGI (MDA-N) [µM] |
| --- | --- | --- | --- | --- | --- | --- | --- | --- | --- | --- | --- | --- | --- | --- | --- | --- | --- | --- | --- |
| CCOC(=O)c1cn2c(n1)sc1cc([N+](=O)[O-])ccc12 | > 100 | > 100 | > 100 | > 100 | > 100 | > 100 | > 100 | > 100 | > 100 | > 100 | > 100 | > 100 | > 100 | > 100 | > 100 | > 100 | > 100 | > 100 |  |
| C[C@@H](NC(=O)Nc1cccc(C(=O)Nc2cc(C(C)(C)C)ccc2C(=O)O)n1)c1ccccc1 | 79.1 |  | 50 | > 100 | > 100 | > 100 | 50.9 | > 100 | > 100 | > 100 | > 100 | > 100 | 37.8 | > 100 | > 100 |  | 44.1 | > 100 | > 100 |
| O=C1/C(=C/c2ccc(Cl)cc2)NC(=S)N1CN1CCCCC1 | > 100 | > 100 | > 100 |  | > 100 | > 100 | 54.4 | 78.8 | 58.2 | > 100 | > 100 |  | > 100 | > 100 | > 100 |  | > 100 | > 100 | > 100 |
| COC(=O)c1c(O)ccc2c1c1c(n2CCc2ccccc2)C(=O)c2ccccc2C1 | 50.6 | 30.9 | 57 |  | 67 |  | 37.2 | 41 | 63.8 | 37.9 | 54.1 |  | 80.3 | 40 | 40.5 | 44 | 35.8 | > 100 | > 100 |
| O=C(O)c1ccc2nc(-c3ccccn3)c(-c3ccccn3)nc2c1 | > 100 | > 100 | > 100 | > 100 | > 100 | > 100 | > 100 | > 100 | > 100 | > 100 | > 100 | > 100 | > 100 | > 100 | > 100 | > 100 | > 100 | > 100 |  |
| CC(=O)Nc1ccc2c3c(cc(O)c2c1)N(C(=O)CCCCCCC(=O)Nc1ccc2c4c(cc(O)c2c1)N(C(=O)OC(C)(C)C)CC4CCl)CC3CCl (centres undefined) |  | 4.11 |  | 2.3 | 0.305 | 0.465 | 0.219 | 1.67 | > 38.5 | 5.55 | 0.284 | 0.238 | 11 | 0.463 | 0.0819 | 0.439 | 11.9 | > 100 | 0.332 |
| O=[N+]([O-])c1ccc(-c2ccc([C@H]3CC(c4cc(F)c(Cl)cc4Cl)=NN3)o2)cc1 |  | > 100 |  | 61.8 | > 100 | > 100 | > 100 | > 100 | > 100 | > 100 | 71.4 | 38.7 |  | 58.9 | > 100 | > 100 | > 100 | 41 | > 100 |
| Cc1c(CNc2ccc(Cl)c(Cl)c2Cl)cnc2nc(N)nc(N)c12 | > 49 | > 62.8 |  | 24.9 | > 48.1 | > 48.8 | 15.8 | > 45.5 | > 100 | > 50 | 24.3 | > 100 | > 46.5 | > 100 | > 100 | > 55.4 | 1.55 | 17.6 | > 32 |
| Cn1c2ccccc2n2c3ccccc3c3nnc(N)c-3c12 | > 100 | > 100 | > 100 | 12.9 | > 100 | > 100 | > 100 | 3.68 | > 100 | 49.8 | 11.8 | > 100 | 11.7 | > 100 | > 100 | > 100 | > 100 | > 100 |  |
| C/C(=C/C(=O)N(C)c1ccccc1Cl)O[Si](C(C)C)(C(C)C)C(C)C |  | 31.1 | 50.1 | > 100 | > 100 |  |  | 46.4 | 37.1 | 33.1 | > 100 |  | 38.7 | 34.5 |  | 66.4 | 34.2 | > 100 | 68.7 |
| CSc1ccc(/C=C2\N=C(c3ccccc3)N(NC(=O)c3c(Cl)c(Cl)c(Cl)c(Cl)c3-c3nc4ccccc4[nH]3)C2=O)cc1 | > 100 | 52.2 |  | 25.6 | 19.7 | > 100 | 59 | > 100 | > 100 | > 100 | 46.6 | 39.3 |  | > 100 | 80.3 | > 100 | 83.3 | 77.3 | > 100 |
| NC(Cc1c2ccccc2cc2ccccc12)C(=O)O (centres undefined) | > 100 | > 100 | > 100 | > 100 | > 100 | > 100 | > 100 | > 100 | > 100 | > 100 | 94.9 | > 100 | > 100 | > 100 |  | > 100 | > 100 | 94.4 |  |
| CC1=C(C(N)=O)C(c2ccncc2)C(C#N)C(=O)N1 (centres undefined) | > 100 | > 100 | > 100 | > 100 | > 100 | > 100 | > 100 | > 100 | > 100 | > 100 | > 100 | > 100 | > 100 |  | > 100 | > 100 | > 100 | > 100 |  |
